Laboratory results taken from PubChem BioAssay AID330 (DTP/NCI, 2004).
“And” between values parts separate entries of the source, which are not always exact repeats. Equal entries are not always repeated. Inconclusive results and toxic doses are left out. How the source made its calls: active means survival T/C of 150% or more; inactive means T/C below 125% in these data.

System: P388 leukemia ip, CD2F1 mice, survival T/C
Test: NCI In Vivo Anticancer Drug Screen. Data for tumor model P388 Leukemia (intraperitoneal) in CD2F1 (CDF1) mice
Conditions: endpoint: median survival time, higher = longer survival
Procedure, shortened: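 Mice carrying the transplanted tumor received test compound or vehicle. Survival was recorded in each group, and the value is the treated-group measurement divided by that of the vehicle-treated control group.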

[1] = dose: 50.0 mg/kg/injection, schedule: Q01DX005 (ip), vehicle: Klucel (hydroxypropylcellulose) (HPC)
[2] = dose: 100.0 mg/kg/injection, schedule: Q01DX005 (ip), vehicle: Klucel (hydroxypropylcellulose) (HPC)
[3] = dose: 200.0 mg/kg/injection, schedule: Q01DX005 (ip), vehicle: Klucel (hydroxypropylcellulose) (HPC)
[4] = dose: 50.0 mg/kg/injection, schedule: Q01DX009 (ip), vehicle: saline

Measured: T/C

NC(=O)c1c(Cl)cccc1Cl
inactive: dose: 12.5 mg/kg/injection, schedule: Q04DX003 (ip), vehicle: saline 101 % of control | dose: 25.0 mg/kg/injection, schedule: Q04DX003 (ip), vehicle: saline 93 % of control | dose: 50.0 mg/kg/injection, schedule: Q04DX003 (ip), vehicle: saline 99 % of control | dose: 100.0 mg/kg/injection, schedule: Q04DX003 (ip), vehicle: saline 101 % of control

C[Si](C)(C)CCCNCCNCCC[Si](C)(C)C
inactive: dose: 60.0 mg/kg/injection, schedule: Q01DX005 (ip), vehicle: saline with Tween-80 100 % of control | dose: 120.0 mg/kg/injection, schedule: Q01DX005 (ip), vehicle: saline with Tween-80 100 % of control

CC(C)(C)S.[Ge]
inactive: dose: 7.5 mg/kg/injection, schedule: Q01DX009 (ip), vehicle: saline with Tween-80 106 % of control | dose: 15.0 mg/kg/injection, schedule: Q01DX009 (ip), vehicle: saline with Tween-80 107 % of control | dose: 30.0 mg/kg/injection, schedule: Q01DX009 (ip), vehicle: saline with Tween-80 103 % of control

COC(=O)C(NP(=O)(NC(C(=O)OC)c1ccccc1)N(CCCl)CCCl)c1ccccc1 (stereo unspecified)
inactive: dose: 7.5 mg/kg/injection, schedule: Q01DX005 (ip), vehicle: saline with Tween-80 102 % of control | dose: 15.0 mg/kg/injection, schedule: Q01DX005 (ip), vehicle: saline with Tween-80 100 % of control | dose: 30.0 mg/kg/injection, schedule: Q01DX005 (ip), vehicle: saline with Tween-80 101 % of control

CC(=O)c1c(O)c(C)c(O)c2c1OC1=CC(=O)c3c(C)noc3C12C (stereo unspecified)
inactive: dose: 12.5 mg/kg/injection, schedule: Q01DX009 (ip), vehicle: gum acacia 102 % of control | dose: 25.0 mg/kg/injection, schedule: Q01DX009 (ip), vehicle: gum acacia 118 % of control | dose: 50.0 mg/kg/injection, schedule: Q01DX009 (ip), vehicle: gum acacia 101 % of control and 112 % of control and 113 % of control | dose: 100.0 mg/kg/injection, schedule: Q01DX009 (ip), vehicle: gum acacia 114 % of control and 118 % of control and 120 % of control | dose: 200.0 mg/kg/injection, schedule: Q01DX009 (ip), vehicle: gum acacia 104 % of control and 105 % of control

Cc1ccc2nc(=O)c3cccnc3n2c1
inactive: dose: 3.75 mg/kg/injection, schedule: Q01DX005 (ip), vehicle: saline 103 % of control | dose: 7.5 mg/kg/injection, schedule: Q01DX005 (ip), vehicle: saline 97 % of control | dose: 15.0 mg/kg/injection, schedule: Q01DX005 (ip), vehicle: saline 98 % of control

CCCCCNc1ncnc2c(C)[nH]nc12
inactive: dose: 12.5 mg/kg/injection, schedule: Q01DX005 (ip), vehicle: Klucel (hydroxypropylcellulose) (HPC) 105 % of control | dose: 25.0 mg/kg/injection, schedule: Q01DX005 (ip), vehicle: Klucel (hydroxypropylcellulose) (HPC) 98 % of control | [1] 91 % of control | [2] 90 % of control | [3] 90 % of control

CN=C(NC(C)C)c1ccccc1
inactive: dose: 12.5 mg/kg/injection, schedule: Q01DX009 (ip), vehicle: saline 91 % of control | dose: 25.0 mg/kg/injection, schedule: Q01DX009 (ip), vehicle: saline 88 % of control | [4] 104 % of control and 88 % of control

O=S(=O)(O)OCNc1cc(F)cc(F)c1
inactive: [4] 96 % of control | dose: 100.0 mg/kg/injection, schedule: Q01DX009 (ip), vehicle: saline 99 % of control | dose: 200.0 mg/kg/injection, schedule: Q01DX009 (ip), vehicle: saline 101 % of control

NC(N)=NS(=O)(=O)c1ccc(N=Nc2c(O)n(-c3ccccc3)n(-c3ccccc3)c2=O)cc1
inactive: dose: 50.0 mg/kg/injection, schedule: Q01DX009 (ip), vehicle: Klucel (hydroxypropylcellulose) (HPC) 88 % of control | dose: 100.0 mg/kg/injection, schedule: Q01DX009 (ip), vehicle: Klucel (hydroxypropylcellulose) (HPC) 94 % of control

CSC1=Nc2ccccc2N=C(N2CCCC2)C1
inactive: [1] 103 % of control | [2] 97 % of control | [3] 97 % of control
